Test results: US20260125388A1 (priority 2022, published 2026)
Converted amounts (≈) assume the structure as drawn.

Experiments:
[1] = Aqueous solubility, shake flask in PBS buffer; assay type: physicochemical; details: for Aqueous solubility: pH 7.2
Description: 5-50 mg of compound was added to 500 μL of PBS buffer at pH 7.4. The pH was adjusted if necessary, using a 1M NaOH solution. The solutions were vortexed for 10 s, sonicated for 2 min and agitated with a horizontal shaker in a closed vial for 24 h. The mixtures were transferred to an Eppendorf tube and centrifuged for 5 min at 16000×g followed by filtration through […] cellulose acetate spin X centrifuge filter (Costar). 200 μL of filtrate was transferred to a new Eppendorf tube and 200 μL of methanol was added and then subsequent dilution was made in 50:50 methanol/PBS buffer water if necessary. After mixing, 50 μL were transferred into a 384 well plate (Coring UV star, 781801) for UV detection at 250-600 nm (Tecan M1000). The assay was carried out with three independent samples of each compound. The concentration of each solution was determined with a calibration curve in 50:50 methanol/PBS buffer water. Absorbance of corresponding methanol PBS blank were recorded and subtracted from the absorbance of calibration curve solutions and from the samples.

[2] = system: HEK293 cells; assay: Cytotoxicity, CellTiter-Glo cell viability assay; assay type: cell-based, human; details: HEK293 cells, CellTiter-Glo; Table 3
Description: Compounds with increased cytotoxicity can be identified using an in vitro cytotoxicity assay. Therefore, human embryonic kidney 293T (HEK293T) cell lines were purchased (ATCC) and cultured in 75 cm2 flasks (CellStar). Cells were grown in DMEM/High Glucose (Hyclone, #SH3024301) media to which non-essential amino acids (Hyclone, #SH30238.01), 10 mM HEPES (Hyclone, #SH302237.01), 5×106 units of penicillin and streptomycin (Hyclone, #SV30010), and 10% of heat inactivated fetal bovine serum (Gibco, #10082147) were added. Cells were harvested using 0.05% Trypsin (Hyclone, #SH3023601). The cell viability assay was evaluated using CellTiter-Glo™ Luminescent Cell Viability Assay Kit (Promega, Madison, WI), which contains luciferase and all its substrate except ATP. The controls for the cytotoxicity assay used were (E)-10-(bromotriphenylphosphoranyl)decyl 4-(4-(tert-butyl)phenyl)-4-oxobut-2-enoate (400 μM in DMSO, positive control) and DMSO (negative control). All luminescence readings were performed on a Tecan Infinite M1000 plate reader. Small volume transfers were performed on the Tecan Freedom EVO liquid handling system with a 100 nL pin tool transfer (V&P Scientific). Serial dilutions were done in 96-well polypropylene plates (Coming, #3365) and assays were conducted in 384-well white optical bottom plates. The assays were carried out in quadruplet in three independent runs. The data were normalized to the controls and if possible analyzed by nonlinear regression (GraphPad Prism).

[3] = in vitro; details: PAMPA, pH 7.4
Description: (§1) The artificial membrane was prepared by carefully pipetting 15 μL of the 5% (v/v) hexadecane in hexane solution to each of the wells of the donor plate. The plate was placed into a fume hood for 1 h to ensure complete evaporation of the hexane. After the hexane had evaporated, 300 μL of PBS with 5% (v/v) DMSO was added to each of the wells of the acceptor plate. The hexadecane treated donor plate was then placed on top of the acceptor plate taking care that the underside of the membrane is completely in contact with the solution in each of the acceptor wells. […] The lid was placed on the plates and the entire plate sandwich was placed into a closed humid environment. The container was then placed on a reciprocal shaker for agitation at about 100 rpm. The time at the beginning of the incubation was recorded, as this is a thermodynamic-based assay. The incubation was then allowed to continue for 18 h. The donor plate was removed and 50 μL of the acceptor solution was transferred to the UV plate. Drug solutions at the theoretical equilibrium concentration (100 μM) was also prepared and transferred to the UV plate. The absorbance of the solutions in the UV plate was then scanned from 250-600 nm with 1 nm steps and a 5 nm bandwidth. Log Pe was calculated as follows (Equation 1).

[4] = system: GABAA receptor; assay: GABAA receptor binding, competition assay with [3H]-flunitrazepam and rat brain membranes; details: 3H-flunitrazepam, rat brain extract; for GABAAR binding, % inhibition at 10 μM: Table 3; for IC50: read-out: GABAAR binding (IC50), value in brackets, Table 3, unit inferred
Description: GABAA receptor binding: Rat brain membranes were prepared from frozen tissue that was thawed on ice and homogenized on ice in 10 volumes of cold lysis buffer (50 mM Tris HCl, pH 7.4, containing protease inhibitor cocktail from Roche) using a Polytron homogenizer (6 pulses and 10 seconds per pulse). The homogenate was centrifuged at 1,000×g for 10 min at 4° C. to obtain the supernatant. The supernatant was then centrifuged at 40,000×g for 20 min, and the resulting supernatant decanted and replaced with the same ice-cold lysis buffer. Two or three additional rounds of homogenization-centrifugation were performed to ensure thorough homogenization and also to wash out endogenous ligands. The final pellet was resuspended in the same buffer and homogenized one last time. […] Total binding and nonspecific binding were determined with reference compound clonazepam. […] Scintillation cocktail is then melted onto the microwave-dried filters on a hot plate and radioactivity counted in a Microbeta counter. The data (n=6) were analyzed by nonlinear regression.

[5] = system: C57/BL6 male mice challenged with MC903; assay: Mouse atopic dermatitis model, MC903 challenge, twice daily oral dosing; assay type: in vivo
Description: An established mouse model of atopic dermatitis (AD) was used to evaluate the efficacy of PI-301 ((R)-8-bromo-6-(2-fluorophenyl)-4-methyl-4H-benzo[f]-imidazo[1,5-a][1,4]diazepine-3-carboxylic acid) in reducing ear thickness, scratching frequency, and inflammatory markers following MC903 challenge (for background on the model see: J Invest Dermatol 138, 2606-2616; Proc Natl Acad Sci USA, 103, 11736-11741; Sci Transl Med, 5, 170ra116; J Invest Dermatol, 138, 1555-1563). The increase of ear thickness is based on the increased diameter of stratum, epidermis, and dermis as determined by standard histological analysis. The thickening of the stratum is based on parakeratosis and hyperkeratosis, the thickening of the epidermis is based on acanthosis and spongiosis and the thickening of the dermis is based on inflammatory infiltration. This reflects increased numbers of neutrophils, mast cells, and, to a lesser extent, eosinophils.
C57/BL6 male mice 8 weeks of age were group housed under a 12 h light/dark cycle. For oral dosing, groups of 8 mice were each given twice daily treatment by voluntary feeding of vehicle (peanut butter) or PI-301 (100 mg/kg in vehicle). Animal weights were recorded daily. Three times per week animals were administered MC903 (1 nmol) on both ears topically. Ear thickness was measured with calipers and photographed.

[6] = system: IL-6, IL-10, IL-13 and TSLP mRNA in mouse ears; assay: RT-PCR of cytokine mRNA in ears of MC903 challenged mice; assay type: in vivo; details: ear mRNA, vs vehicle
Description: RT-PCR was used to assay the change in cytokines in MC903 challenged animals treated with PI-301. Left mouse ears stored at −20° C. were thawed, rinsed with water and homogenized in 500 μL RLT buffer (Qiagen, 79216). The liquid was added to a QIAshredder (Qiagen, 79654) and centrifuged at 6000 g for 2 min. 350 μL of the supernatant was combined with 350 μL 70% ethanol and mRNA purified with a RNeasy Mini Kit (Qiagen, 74104). mRNA was analyzed using the Accuris qMAX Green One-Step RT-qPCR Kit (Accuris Instruments) along with primers for IL-4, IL-5, IL-6, IL-10, IL-13, INFγ, and TSLP. Data were acquired using an Eppendorf Mastercycler Pro (45° C. 10 min, 95° C. 2 min, [95° C. 30 s, 55° C. 1 min, 72° C. 2 min]×45) and analyzed by the Delta and Delta-Delta Ct method. Each measurement was carried out in triplicate.

[7] = system: C57/BL6 mice challenged with MC903; assay: Acute treatment in the MC903 mouse model, scratch count; assay type: in vivo; details: single oral gavage on day 19; recording from 40 min after dose; oclacitinib 45 mg/kg, PI-301 100 mg/kg; p<0.05 vs vehicle
Description: In another study, the acute treatment effects of oclacitinib (a JAK inhibitor approved for veterinary use) and PI-301 were studied in the MC903 model using C57/BL6 mice. As described previously, MC903 was applied topically on both sides of both ears (1 nmol). On day 19 of the study (D1), drugs or vehicle were administered to individual treatment groups by oral gavage: oclacitinib (45 mg/kg) or PI-301 (100 mg/kg). Mice were video recorded for 60 minutes beginning 40 minutes after drug administration and scratches counted.

[8] = parallel artificial membrane permeation assay at pH 7.4
Description: as §1

Structure (SMILES) | Aqueous solubility [1] [µM] | Cytotoxicity LD50 [2] [µM] | Papp [3] [×10⁻⁶ cm/s] | GABAAR binding, % inhibition at 10 μM [4] [%] | IC50 [4] [nM] | scratches counted over 60 minutes [7] | other results
CCC1N=C(c2ccccc2F)c2cc(Br)ccc2NC1=O (stereo not drawn) [Compound 35, 7-bromo-3-ethyl-5-(2-fluorophenyl)-1,3-dihydro-2H-benzo[e][1,4]diazepin-2-one] | 397 ± 31 | >150 | 2 | 95 | 134 |  | 
C[C@H]1N=C(c2ccccc2F)c2cc(Br)ccc2-n2cnc(C(=O)O)c21 [PI-301, (R)-8-bromo-6-(2-fluorophenyl)-4-methyl-4H-benzo[f]-imidazo[1,5-a][1,4]diazepine-3-carboxylic acid] |  |  |  |  |  | significant (p<0.05) reduction in scratches | number of scratches ([5]; 100 mg/kg oral twice daily, days 19 and 22, vs vehicle): significantly reduced; increase of ear thickness due to MC903 ([5]; 100 mg/kg oral twice daily, significant on day 10, vs vehicle): reduced the increase of ear thickness; thicknesses of the dermis and epidermis ([5]; histology of H&E stained ear sections, p<0.005 vs vehicle): significant differences; IL-6 induction [6]: reduced induction; IL-10 induction [6]: reduced induction; IL-13 induction [6]: reduced induction; TSLP induction [6]: reduced induction
CNS(=O)(=O)C[C@H]1CC[C@H](N(C)c2ncnc3[nH]ccc23)CC1 [oclacitinib, reference compound] |  |  |  |  |  | significant (p<0.05) reduction in scratches | 
CCOC(=O)c1ncn2c1C(C)(C)N=C(c1ccccc1F)c1cc(Br)ccc1-2 [Compound 15] | 103 ± 5 | >150 |  | 78 | 733 |  | Permeability (log Pe (cm/s)) [8]: −6.0 ± 0.12 cm/s
C#Cc1ccc2c(c1)C(c1ccccc1F)=NC1(CC1)c1c(C(=O)OCC)ncn1-2 [Compound 18] |  | >150 | 25.1 | 56 | 509 |  | solubility at 24 h ([1]; PBS buffer, aqueous buffer, thermodynamic from solid, pH 7.2, read-out: Aqueous solubility): 53 ± 3 µM (≈ 21.2 µg/mL)
